SMILES strings stand for the structures.

What all share (assay): Effect of metallic ions and chemical compounds on chitinase activity
Type in all cases: biochemical, P. orarium
What all share (details): relative to standard MAT buffer control (100%); ions and EDTA 1 mM, Tween 20 0.5% v/v, SDS 0.5% w/v; 2 μM enzyme

Assay [1] has as its system recombinant chitinase C2. Here is the method: (§1) The addition of different co-factors and chemicals was assessed to determine whether they stimulate or inhibit enzymatic activity and the effect was evaluated relative to the control in standard MAT buffer (33 mM 2-(N-morpholino) ethanesulfonic acid (MES), 33 mM sodium acetate, 33 mM Tris(hydroxymethyl) aminomethane (TRIS); pH 8.0). The selection of tested compounds at the respective concentrations was based on findings for different chitinases so far [Zarei et al., J. Microbiol., 2011. 42: p. 1017-1029.]. […] All enzymes were inhibited the strongest by Zn2+ and Cu2+ and SDS (0.5% w/v) resulting in a relative loss of activity of up to 99%. […] Inhibitory effects of Ni2+ and imidazole on enzymatic activity also underline the requirement for dialysis of the elution fractions after purification in order to remove residual Ni2+ and imidazole from the elution buffer.
(§2) Enzyme samples were incubated at different temperature (10-60° C., 10° C. increment) and pH (4-11, increment 1) using different buffer systems (Acetate, Tris-HCl, MES, total molar concentration 100 mM), as well as NaCl content (0, 1. 2.5, 5, 10 and 20% w/v) to determine optimum reaction conditions. All experiments were carried out at 1.0 ml scale using 2 μM of the respective enzymes and a 5% (wv) suspension of chitin powder extracted from shrimp shells (˜400.000 g/mol; Carl, Roth) in 100 mM MAT buffer. For the determination of the substrate specificity, chitin powder (5% w/v), glycol chitin (10% v/v), colloidal chitin (5% w/v), chitosan [DA 15-25%, medium molecular weight, Sigma-Aldrich] (5% w/v) and microcrystalline cellulose powder (Sigma Aldrich) (5% w/v) were investigated, respectively. The effect of several potential co-factors on activity was elucidated at a concentration of 1 mM. Additionally, the effect of detergents [SDS 0.5% (w/v), Tween-20 and Triton X-100 both at 0.5% (v/v)] and chemicals (Imidazole 100 mM, EDTA 1 mM) on enzymatic activity was assessed. Samples were incubated in a thermomixer for 16 h at 900 rpm. After incubation, samples were analyzed using the enzyme assay. Thermostability was assessed after incubation of recombinant chitinases at 60° C. for different durations followed by the quantification of residual enzyme activity under standard assay conditions.

For assay [2], the system named is recombinant chitinase C4. The procedure:
as §1, §2

For assay [3], the system named is recombinant chitinase C1. Here is the method: as §1, §2
The test system of assay [4] is recombinant chitinase C5. The procedure:
as §1, §2

For assay [5], the system named is recombinant chitinase C3. The procedure: as §1, §2

As for `[Zn+2]` [Zn^2+], the “[%] Residual activity C2” value in assay [1] turned out to be 2.3 ± 0.4%. The “[%] Residual activity C4” value in assay [2] is 8.1 ± 0.7%. In assay [3], the “[%] Residual activity C1” value was found to be 30.5 ± 0.3%. Further, the “[%] Residual activity C5” value in assay [4] is reported as 0.6 ± 0.5%. Besides, the “[%] Residual activity C3” value in assay [5] is 21.7 ± 0.1%.

As for `[Cu+2]` [Cu^2+], the “[%] Residual activity C2” value in assay [1] was 12.3 ± 0.9%. For the same molecule, the “[%] Residual activity C4” value in assay [2] is 14.8 ± 3.4%. In assay [3], the “[%] Residual activity C1” value came out at 11.1 ± 3.7%. The “[%] Residual activity C5” value in assay [4] is recorded as 3.9 ± 2.9%. Further, in assay [5], the “[%] Residual activity C3” value is recorded as 16.9 ± 0.2%.

In the case of `[K+]` [K^2+], the “[%] Residual activity C2” value in assay [1] worked out at 44.8 ± 2.3%. Also, the “[%] Residual activity C4” value in assay [2] is 3.7 ± 0.2%. The “[%] Residual activity C1” value in assay [3] is on record as 100.1 ± 2.8%. In addition, the “[%] Residual activity C5” value in assay [4] amounted to 28.6 ± 0.4%. In addition, in assay [5], the “[%] Residual activity C3” value stood at 72.6 ± 1.7%.

Take `[Ni+2]` [Ni^2+]: the “[%] Residual activity C2” value in assay [1] is listed as 23.0 ± 0.7%. Further, in assay [2], the “[%] Residual activity C4” value was determined as 38.8 ± 1.7%. In assay [3], the “[%] Residual activity C1” value is 76.6 ± 5.1%. In addition, the “[%] Residual activity C5” value in assay [4] is on record as 5.6 ± 0.3%. The “[%] Residual activity C3” value in assay [5] was determined as 64.8 ± 1.2%.

As to `[Mg+2]` [Mg^2+], the “[%] Residual activity C2” value in assay [1] was found to be 38.7 ± 1.7%. Moreover, in assay [2], the “[%] Residual activity C4” value is on record as 3.3 ± 0.2%. Further, the “[%] Residual activity C1” value in assay [3] came to 99.8 ± 3.1%. For the same molecule, the “[%] Residual activity C5” value in assay [4] is given as 25.8 ± 0.9%. Also, the “[%] Residual activity C3” value in assay [5] turned out to be 68.8 ± 2.8%.

On to `[Ca+2]` [Ca^2+], for which the “[%] Residual activity C2” value in assay [1] turned out to be 35.6 ± 1.7%. Besides, the “[%] Residual activity C4” value in assay [2] is recorded as 3.8 ± 0.4%. Besides, in assay [3], the “[%] Residual activity C1” value worked out at 92.7 ± 2.1%. In addition, the “[%] Residual activity C5” value in assay [4] was determined as 21.3 ± 0.1%. The “[%] Residual activity C3” value in assay [5] was determined as 94.7 ± 2.0%.

With `CCCCCCCCCCCCOS(=O)(=O)[O-].[Na+]` [SDS, sodium dodecyl sulfate], the “[%] Residual activity C2” value in assay [1] is given as 21.6 ± 1.0%. For the same molecule, in assay [2], the “[%] Residual activity C4” value was 33.2 ± 3.4%. Further, in assay [3], the “[%] Residual activity C1” value was found to be 1.5 ± 0.2%. Further, the “[%] Residual activity C5” value in assay [4] is 19.9 ± 0.3%. For the same molecule, the “[%] Residual activity C3” value in assay [5] came to 2.4 ± 1.9%.

For the molecule `O=C(O)CN(CCN(CC(=O)O)CC(=O)O)CC(=O)O` [EDTA], the “[%] Residual activity C2” value in assay [1] stood at 20.4 ± 1.6%. In assay [2], the “[%] Residual activity C4” value came to 73.9 ± 4.1%. Further, the “[%] Residual activity C1” value in assay [3] is given as 68.9 ± 0.7%. Also, in assay [4], the “[%] Residual activity C5” value is 28.0 ± 0.9%. Moreover, the “[%] Residual activity C3” value in assay [5] is given as 80.8 ± 4.8%.
